# Reference: PMC6204216 (Archives of biochemistry and biophysics, 2018)
# Like-named read-outs stand apart in the source and are kept apart here.
# How the values were obtained:
# [1] = Stability of aqueous solutions; type: physicochemical
# AChE [2] = target: T1, AChE (Homo sapiens, UniProt P22303); test: Carbamoylation of AChE, qualitative observations; type: biochemical
# Target sequence in this assay (P22303 32-614): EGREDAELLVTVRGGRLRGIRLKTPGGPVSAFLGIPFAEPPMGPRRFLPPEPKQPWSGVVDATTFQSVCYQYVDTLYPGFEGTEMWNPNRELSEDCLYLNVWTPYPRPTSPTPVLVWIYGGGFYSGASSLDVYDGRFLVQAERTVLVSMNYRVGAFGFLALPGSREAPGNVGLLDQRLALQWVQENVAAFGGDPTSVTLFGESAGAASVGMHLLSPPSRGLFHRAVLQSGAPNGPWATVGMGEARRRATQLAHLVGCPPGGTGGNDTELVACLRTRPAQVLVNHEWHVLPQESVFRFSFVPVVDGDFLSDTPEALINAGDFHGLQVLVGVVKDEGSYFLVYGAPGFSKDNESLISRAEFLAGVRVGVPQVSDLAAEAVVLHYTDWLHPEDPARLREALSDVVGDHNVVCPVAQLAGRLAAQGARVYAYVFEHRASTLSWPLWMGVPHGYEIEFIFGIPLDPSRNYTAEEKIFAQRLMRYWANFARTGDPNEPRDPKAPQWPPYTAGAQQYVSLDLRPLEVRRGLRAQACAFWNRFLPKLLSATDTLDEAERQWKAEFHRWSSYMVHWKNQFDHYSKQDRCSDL
# AChE [3] = target: T1, AChE; test: Solvent deuterium oxide kinetic isotope effect on decarbamoylation; type: biochemical; details: 25 °C, pH 7.0, mean ± SE
# Target sequence in this assay (P22303 32-617 isoform P22303-2 limits assumed): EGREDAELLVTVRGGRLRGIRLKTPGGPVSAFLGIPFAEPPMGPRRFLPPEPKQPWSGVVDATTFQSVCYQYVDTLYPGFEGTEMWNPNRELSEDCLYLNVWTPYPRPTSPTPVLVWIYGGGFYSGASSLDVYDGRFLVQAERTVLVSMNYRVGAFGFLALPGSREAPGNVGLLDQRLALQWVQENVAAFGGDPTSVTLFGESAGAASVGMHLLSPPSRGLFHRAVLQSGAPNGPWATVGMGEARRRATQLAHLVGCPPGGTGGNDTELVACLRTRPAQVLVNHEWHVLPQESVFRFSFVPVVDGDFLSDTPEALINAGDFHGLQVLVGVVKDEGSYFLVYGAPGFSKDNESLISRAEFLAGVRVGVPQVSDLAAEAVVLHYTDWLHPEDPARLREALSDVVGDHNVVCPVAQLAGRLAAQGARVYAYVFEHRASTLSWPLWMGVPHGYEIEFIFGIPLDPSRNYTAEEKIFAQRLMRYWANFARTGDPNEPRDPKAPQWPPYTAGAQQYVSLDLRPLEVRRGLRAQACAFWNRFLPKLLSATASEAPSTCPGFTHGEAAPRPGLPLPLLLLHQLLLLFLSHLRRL
# AChE [4] = target: T1, AChE; details: for k21 × 10^6 (decarbamoylation rate constant): 25 °C, absence of carbamate, mean ± SEM of n measurements
# Target sequence in this assay (P22303 32-617 isoform P22303-2 limits assumed): as above
# AChE [5] = target: T1, AChE; type: biochemical
# Target sequence in this assay (P22303 32-617 isoform P22303-2 limits assumed): as above
# AChE [6] = target: T1, AChE; details: after carbamoylation of hAChE; cited from earlier work
# Target sequence in this assay (P22303 32-617 isoform P22303-2 limits assumed): as above
# AChE [7] = target: T1, AChE; details: cited from earlier work
# Target sequence in this assay (P22303 32-614): as the sequence (P22303 32-614) above
# AChE in rat brain = details: in vivo, 37 °C; cited from earlier work
# AChE [8] = target: T1, AChE; test: Literature carbamoylation and decarbamoylation of AChE; type: biochemical
# Target sequence in this assay (P22303 32-614): as above
# [9] = k12 data fitted to Eq. 1a, 25 °C
smiles,measurement,setting,value
"CCN(C)C(=O)Cl [EMCC, N-ethyl–N-methylcarbamoyl chloride]",Stability of aqueous solutions,[1],very unstable
same,Carbamoylation of AChE,AChE [2],poorly
CNC(=O)Oc1cccc([N+](C)(C)C)c1 [Monomethyl neostigmine],k21 ^H2O / k21^D2O (deuterium oxide kinetic isotope effect on k21),AChE [3]; listed as N-monomethyl HTMA,2.8 ± 0.2
same,k21 ^H2O / k21^D2O (deuterium oxide kinetic isotope effect on k21),AChE [3]; listed as N-monomethyl neostigmine,2.8
same,k21 × 10^6 (decarbamoylation rate constant),AChE [4]; second protocol,12300 ± 400 min^−1
same,R (fraction of total enzyme carbamoylated at reaction initiation),"AChE [4]; after spin column, Figure 3 fit",0.90
same,k21,"AChE [4]; second protocol, Figure 3a fit, 0.25 mM acetylthiocholine",12.9 ± 0.02 × 10^−3 min^−1
same,k21,"AChE [5]; first protocol, Figure 2, paper calls estimates below 0.01 min^−1 unreliable",0.013 min⁻¹
same,k2/KD,AChE [5]; fitted to Eq. 1a,16 ± 2 min^−1μM^−1
same,Kd,AChE [5]; [9],3.2 ± 0.4 µM
same,k2 (carbamoylation),AChE [5]; [9],51 ± 2 min⁻¹
C[C@@H]1CN(CCCCCCCCNC(=O)Oc2ccc3c(c2)[C@]2(C)CCN(C)[C@@H]2N3C)C[C@H](C)O1 [MF268],k21,AChE [6],too small to be measured
"CNC(=O)Oc1cccc2ccccc12 [carbaryl, reference compound]",k21 × 10^6 (decarbamoylation rate constant),AChE [4]; second protocol,11300 ± 600 min^−1
"CCN(CC)C(=O)F [N,N-diethyl F, N,N-diethylcarbamoyl fluoride]","Formation of N,N-diethylcarbamoylated AChE",AChE [7],failed to detect
same,k21 × 10^6 (decarbamoylation rate constant),AChE [4]; second protocol,7 ± 1 min^−1
same,Recovery half time of AChE,AChE in rat brain,182 h
CCN(C)C(=O)Oc1cccc([N+](C)(C)C)c1 [N-ethyl-N-methyl HTMA],k21 ^H2O / k21^D2O (deuterium oxide kinetic isotope effect on k21),AChE [3],1.8 ± 0.2
same,k21 × 10^6 (decarbamoylation rate constant),AChE [4]; second protocol,150 ± 20 min^−1
"CN(C)C(=O)Oc1cccc([N+](C)(C)C)c1 [neostigmine, reference compound]",k21 ^H2O / k21^D2O (deuterium oxide kinetic isotope effect on k21),AChE [3],2.4 ± 0.2
same,k21 × 10^6 (decarbamoylation rate constant),AChE [4]; second protocol,3600 ± 300 min^−1
"CCN(CC)C(=O)OCC[N+](C)(C)C [N,N-diethylcarbamoyl choline, reference compound]","Formation of N,N-diethylcarbamoylated AChE",AChE [7],failed to detect
"CCN(CC)C(=O)Oc1cccc([N+](C)(C)C)c1 [N,N-diethyl HTMA]",k21 ^H2O / k21^D2O (deuterium oxide kinetic isotope effect on k21),AChE [3],1.1 ± 0.2
same,k21 × 10^6 (decarbamoylation rate constant),AChE [4]; second protocol,16 ± 5 min^−1
C[N+](C)(C)CCOC(N)=O [carbamoyl choline],k21 larger than that for N-monomethylcarbamoylated AChE,AChE [8],10 fold
